# Data as given in patent US12472195B2, “Inhalation formulations of antimicrobial compounds” (priority 2020, dated 2025).
# Where two headings read alike, the source gives them in different places.
# Key:
# mouse lung tissue = assay: Lung histology examination after intratracheal administration in mice
# Procedure: The animal study was approved by the Animal Ethics Committee of the Monash Institute of Pharmaceutical Sciences, Monash University (Parkville, Victoria, Australia). All experiments were conducted in accordance with the Australian Code of Practice for the Care and Use of Animals for Scientific Purposes. Swiss Albino mice (female; age, 6 weeks; body weight, 20 to 25 g) were obtained from the Monash Animal Research Platform (Clayton, Victoria, Australia). […] The animals were housed individually in metabolic cages and had free access to food and water. Mice were intratracheally administered 10 mg/kg of polymyxin B, 60 mg/kg of tobramycin and the combination of tobramycin with polymyxin B in sterile 0.9% saline three times a day and lung histology examination were conducted in a blind manner.
# [1] = system: human lung epithelial A549 cells
# Procedure: Human lung epithelial cells (A549 cells) were obtained from American Type Culture Collection (ATCC® CCL-185™, Manassas, VA, USA), grown and sub-cultured in Dulbecco's modified Eagle's medium (DMEM) supplemented with 10% fetal bovine serum (FBS). A549 cells (1×10^5 cells/mL, 12-well plate) were seeded in supplemented DMEM at 37° C. in a humidified atmosphere containing 5% CO2 until 80% confluency. All experiments were conducted in three replicates. Cells were treated with 1.0 mM polymyxin B in the presence and absence of tobramycin (1.0, 3.0, 5.0, 10.0 and 20.0 mM), amikacin (5.0 and 20.0 mM), gentamicin (5.0, 10.0 and 20.0 mM) and plazomicin (5.0 and 20.0 mM) in supplemented DMEM (1% FBS); and cell viability were examined at 24h with flow cytometry after staining with propidium iodide.
# [2] = mice, intratracheal, three times a day, 10 mg/kg polymyxin B, 60 mg/kg tobramycin, or both
Molecule,"effect on polymyxin B-induced pulmonary toxicity (mouse lung tissue; mouse, in vivo)","cell viability ([1]; human, 24 h, 20 mM) [%]",area of lung tissue affected by damage (mouse lung tissue; [2]),semi-quantitative score (SQS) of lung histology (mouse lung tissue; [2]),"cell viability ([1]; 1.0 mM polymyxin B alone, A549 cells, 24h, mean±SD n=3) [%]"
"NC[C@H]1O[C@H](O[C@H]2[C@H](O)[C@@H](O[C@H]3O[C@H](CO)[C@@H](O)[C@H](N)[C@H]3O)[C@H](N)C[C@@H]2N)[C@H](N)C[C@@H]1O [Tobramycin, tobramycin]",significantly reduced,87.4±1.6,,,
polymyxin B,,,25-50%,+2 to +5,40.7±7.4
